The values below come from ChEMBL document CHEMBL3431459, “Roche carnitine palmitoyltransferase modulator screening data (supplementary data associated with the publication CHEMBL2216752)”.

For experiment [1], the target named is T1, Carnitine O-palmitoyltransferase 1, liver isoform (Rattus norvegicus, UniProt P32198).
T1 sequence (P32198 whole entry): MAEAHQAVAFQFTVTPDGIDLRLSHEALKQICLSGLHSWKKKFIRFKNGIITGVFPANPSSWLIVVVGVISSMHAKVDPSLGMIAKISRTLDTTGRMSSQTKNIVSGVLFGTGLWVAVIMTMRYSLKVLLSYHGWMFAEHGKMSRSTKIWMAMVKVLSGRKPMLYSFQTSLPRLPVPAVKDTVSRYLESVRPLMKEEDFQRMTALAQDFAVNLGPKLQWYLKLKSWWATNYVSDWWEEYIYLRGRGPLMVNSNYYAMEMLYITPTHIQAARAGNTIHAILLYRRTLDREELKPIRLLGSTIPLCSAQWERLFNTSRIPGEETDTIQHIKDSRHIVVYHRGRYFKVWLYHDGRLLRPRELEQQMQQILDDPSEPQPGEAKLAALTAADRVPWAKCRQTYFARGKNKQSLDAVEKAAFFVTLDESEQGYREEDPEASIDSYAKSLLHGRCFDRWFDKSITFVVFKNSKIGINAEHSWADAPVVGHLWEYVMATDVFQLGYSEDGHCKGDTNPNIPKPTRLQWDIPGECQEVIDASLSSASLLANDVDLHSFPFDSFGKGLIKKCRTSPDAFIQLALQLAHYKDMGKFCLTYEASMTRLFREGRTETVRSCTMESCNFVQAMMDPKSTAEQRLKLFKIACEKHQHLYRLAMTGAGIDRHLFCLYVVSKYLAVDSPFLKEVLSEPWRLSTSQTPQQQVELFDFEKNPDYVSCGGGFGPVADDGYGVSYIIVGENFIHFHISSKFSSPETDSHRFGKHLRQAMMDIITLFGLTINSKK
The experiment in a line: (§1) SUPPLEMENTARY: Inhibition of Carnitine palmitoyltransferase 1, liver isoform.

Experiment [2] has as its target T2, Carnitine O-palmitoyltransferase 1, muscle isoform (Homo sapiens, UniProt Q92523).
T2 sequence (Q92523 whole entry): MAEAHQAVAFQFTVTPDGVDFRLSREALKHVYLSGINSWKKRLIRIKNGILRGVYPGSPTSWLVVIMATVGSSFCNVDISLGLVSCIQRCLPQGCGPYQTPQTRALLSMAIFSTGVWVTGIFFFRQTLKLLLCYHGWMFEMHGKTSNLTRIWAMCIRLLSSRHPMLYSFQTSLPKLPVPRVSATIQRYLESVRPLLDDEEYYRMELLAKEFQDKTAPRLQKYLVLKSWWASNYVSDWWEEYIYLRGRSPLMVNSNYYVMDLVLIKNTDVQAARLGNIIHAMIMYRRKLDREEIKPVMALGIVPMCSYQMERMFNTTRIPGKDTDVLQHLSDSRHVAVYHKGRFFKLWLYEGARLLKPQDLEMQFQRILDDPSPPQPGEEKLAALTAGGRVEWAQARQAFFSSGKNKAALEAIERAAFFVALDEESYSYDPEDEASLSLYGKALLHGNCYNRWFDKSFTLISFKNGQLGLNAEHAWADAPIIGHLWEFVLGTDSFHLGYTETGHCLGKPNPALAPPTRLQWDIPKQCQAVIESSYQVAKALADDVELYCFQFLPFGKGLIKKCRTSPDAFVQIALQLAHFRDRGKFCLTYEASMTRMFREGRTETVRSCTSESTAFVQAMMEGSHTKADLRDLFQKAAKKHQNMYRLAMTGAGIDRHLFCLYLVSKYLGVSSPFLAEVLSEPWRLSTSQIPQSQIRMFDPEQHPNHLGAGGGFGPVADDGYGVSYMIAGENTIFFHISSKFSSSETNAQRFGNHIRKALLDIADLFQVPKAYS
The experiment in a line: SUPPLEMENTARY: Inhibition of Carnitine palmitoyltransferase 1, muscle isoform. Set-up: species or system Muscle tissue.

For experiment [3], the target named is T3, Carnitine O-palmitoyltransferase 2, mitochondrial (Homo sapiens, UniProt P23786).
T3 sequence (P23786 whole entry): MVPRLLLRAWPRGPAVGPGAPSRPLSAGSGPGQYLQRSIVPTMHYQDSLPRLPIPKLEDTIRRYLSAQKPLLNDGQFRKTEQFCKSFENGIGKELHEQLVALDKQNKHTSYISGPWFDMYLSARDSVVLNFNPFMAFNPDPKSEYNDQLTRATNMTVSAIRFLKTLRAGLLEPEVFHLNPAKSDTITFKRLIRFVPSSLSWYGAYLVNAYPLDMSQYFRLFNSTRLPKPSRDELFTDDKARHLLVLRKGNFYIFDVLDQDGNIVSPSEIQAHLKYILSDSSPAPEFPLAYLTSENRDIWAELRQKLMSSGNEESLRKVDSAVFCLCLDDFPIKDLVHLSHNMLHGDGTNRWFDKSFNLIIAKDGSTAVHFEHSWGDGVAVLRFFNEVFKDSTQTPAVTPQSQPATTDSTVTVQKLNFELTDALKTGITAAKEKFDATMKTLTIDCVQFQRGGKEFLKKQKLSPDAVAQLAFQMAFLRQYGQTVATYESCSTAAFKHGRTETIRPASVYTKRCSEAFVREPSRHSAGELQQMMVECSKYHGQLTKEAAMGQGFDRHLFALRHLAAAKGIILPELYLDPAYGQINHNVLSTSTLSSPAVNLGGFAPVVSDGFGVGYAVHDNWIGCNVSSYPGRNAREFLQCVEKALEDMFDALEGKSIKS
The experiment is described as follows: (§2) SUPPLEMENTARY: Inhibition of Carnitine palmitoyltransferase 2.

In experiment [4] the target is T4, Carnitine O-palmitoyltransferase 1, liver isoform (Homo sapiens, UniProt P50416).
T4 sequence (P50416 whole entry): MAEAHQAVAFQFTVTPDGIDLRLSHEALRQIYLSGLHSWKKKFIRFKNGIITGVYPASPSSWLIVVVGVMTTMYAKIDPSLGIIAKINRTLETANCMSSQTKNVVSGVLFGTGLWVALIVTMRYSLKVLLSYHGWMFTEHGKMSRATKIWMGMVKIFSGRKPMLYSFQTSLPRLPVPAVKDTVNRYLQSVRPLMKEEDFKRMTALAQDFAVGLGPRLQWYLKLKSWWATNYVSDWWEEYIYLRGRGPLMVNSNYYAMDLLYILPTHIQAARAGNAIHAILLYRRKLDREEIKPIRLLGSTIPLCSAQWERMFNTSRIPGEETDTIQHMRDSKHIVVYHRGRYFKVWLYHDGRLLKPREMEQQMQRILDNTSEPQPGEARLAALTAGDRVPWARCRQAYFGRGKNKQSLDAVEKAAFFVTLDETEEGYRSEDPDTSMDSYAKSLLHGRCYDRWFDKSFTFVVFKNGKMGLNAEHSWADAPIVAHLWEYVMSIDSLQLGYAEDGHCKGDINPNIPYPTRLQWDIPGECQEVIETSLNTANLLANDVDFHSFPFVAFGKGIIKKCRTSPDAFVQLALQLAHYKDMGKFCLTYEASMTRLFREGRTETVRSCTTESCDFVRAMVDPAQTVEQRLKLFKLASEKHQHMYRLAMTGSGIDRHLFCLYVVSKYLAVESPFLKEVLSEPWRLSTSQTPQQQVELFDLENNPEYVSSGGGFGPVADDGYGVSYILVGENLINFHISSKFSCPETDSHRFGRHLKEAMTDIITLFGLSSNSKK
The description is as §1.

Experiment [5] deals with T5, Carnitine O-palmitoyltransferase 2, mitochondrial (Rattus norvegicus, UniProt P18886).
T5 sequence (P18886 whole entry): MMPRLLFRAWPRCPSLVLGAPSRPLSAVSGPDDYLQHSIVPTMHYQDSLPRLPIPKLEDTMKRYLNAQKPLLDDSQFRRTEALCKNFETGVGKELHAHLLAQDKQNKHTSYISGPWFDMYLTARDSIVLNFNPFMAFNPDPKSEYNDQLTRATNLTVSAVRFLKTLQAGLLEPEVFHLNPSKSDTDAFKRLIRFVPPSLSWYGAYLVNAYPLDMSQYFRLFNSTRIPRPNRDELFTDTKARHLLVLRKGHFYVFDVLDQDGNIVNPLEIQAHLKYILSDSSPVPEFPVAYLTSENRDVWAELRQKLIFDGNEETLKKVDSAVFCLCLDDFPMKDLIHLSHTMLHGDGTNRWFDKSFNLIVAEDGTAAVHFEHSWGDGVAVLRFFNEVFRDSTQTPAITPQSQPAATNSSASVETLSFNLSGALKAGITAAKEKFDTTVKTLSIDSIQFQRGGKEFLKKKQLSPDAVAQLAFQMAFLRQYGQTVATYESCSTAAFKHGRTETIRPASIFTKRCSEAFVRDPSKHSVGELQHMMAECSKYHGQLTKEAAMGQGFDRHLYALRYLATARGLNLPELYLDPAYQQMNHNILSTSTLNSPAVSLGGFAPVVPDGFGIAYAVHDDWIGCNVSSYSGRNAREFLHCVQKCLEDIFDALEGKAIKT
The experiment is described as §2.

What is called IC50 is the concentration that gives 50% inhibition. Higher therefore signals lower potency. In turn, `COc1ccc(C)cc1S(=O)(=O)N1CCCc2ccc(C(=O)Nc3ccc(CC(=O)O)cc3)cc21` came in with an IC50 in experiment [1] of 0.186 µM.

In the case of `O=C(COc1ccccc1)N1CCCCC1c1ncc(-c2cccc([N+](=O)[O-])c2)s1` (configuration not stated), the IC50 in experiment [2] was greater than 100 µM; in experiment [3] it was greater than 100 µM; in experiment [4] it was 0.206 µM; in experiment [1] it was 0.958 µM.

As to `O=C(COc1ccccc1)N1CCCCC1c1cc(=O)n(-c2ccc(F)cc2)[nH]1` (configuration not stated), the IC50 is greater than 100 µM in experiment [2], greater than 100 µM in experiment [3], 0.281 µM in experiment [4] and 1.58 µM in experiment [1].

In the case of `COC(=O)c1cccc(-c2csc([C@H]3CCCCN3C(=O)COc3ccccc3)n2)n1`, the IC50 in experiment [2] is 7.62 µM; in experiment [3] it was 16.8 µM; in experiment [5] it was greater than 100 µM; in experiment [1], 0.172 µM.

Turning to `O=C1Cc2cc(-c3csc([C@H]4CCCCN4C(=O)COc4ccccc4)n3)ccc2N1`, the IC50 in experiment [2] is greater than 100 µM; in experiment [3], 0.686 µM; in experiment [5], 42.8 µM; in experiment [1], 0.154 µM.

Turning to `CC(=O)Nc1ccc(-c2csc([C@H]3CCCCN3C(=O)COc3ccccc3)n2)cc1`, the IC50 is greater than 100 µM in experiment [2], 3.68 µM in experiment [3], greater than 100 µM in experiment [5] and 0.12 µM in experiment [1].

Regarding `O=C(COc1ccccc1)N1CCCC[C@@H]1c1nc(-c2ccc(O)cc2)cs1`, the IC50 was 34.5 µM in experiment [2], greater than 100 µM in experiment [3], greater than 100 µM in experiment [5] and 0.227 µM in experiment [1].

Consider `O=C(COc1ccccc1)N1CCCC[C@@H]1c1nc(-c2ccc3c(c2)OCO3)cs1`, for which the IC50 in experiment [2] is greater than 100 µM; in experiment [3], 56 µM; in experiment [5] it was greater than 100 µM; in experiment [1], 0.224 µM.

On to `N#Cc1cccc(-c2csc([C@H]3CCCCN3C(=O)COc3ccccc3)n2)c1`, for which the IC50 in experiment [2] stood at 8.1 µM; in experiment [3] it was 6.55 µM; in experiment [5], 68.1 µM; in experiment [1], 0.128 µM.

Consider `O=C(COc1ccccc1)N1CCCC[C@@H]1c1nc(-c2ccc(Br)s2)cs1`, for which the IC50 in experiment [2] is 5.66 µM; in experiment [3], 47.9 µM; in experiment [5], greater than 100 µM; in experiment [1] it was 1.36 µM.

With `O=C(O)c1cccc(-c2csc([C@H]3CCCCN3C(=O)COc3ccccc3)n2)n1`, the IC50 in experiment [2] is 19.5 µM; in experiment [3] it was 81.3 µM; in experiment [5], 99.1 µM; in experiment [1] it was 0.301 µM.

Consider `O=C(COc1ccccc1)N1CCCC[C@@H]1c1csc(-c2ccc(C(F)(F)F)cn2)n1`, for which the IC50 was greater than 100 µM in experiment [2], 49.8 µM in experiment [3], greater than 100 µM in experiment [5] and 2 µM in experiment [1].

Regarding `O=C(COc1ccccc1)N1CCCC[C@@H]1c1csc(-c2cnccn2)n1`, the IC50 worked out at 59.8 µM in experiment [2], 32.7 µM in experiment [3], 88.9 µM in experiment [5] and 0.589 µM in experiment [1].

In the case of `O=C(COc1ccccc1)N1CCCC[C@@H]1c1csc(Cc2ccc(Cl)cc2)n1`, the IC50 in experiment [2] was greater than 100 µM; in experiment [3] it was greater than 100 µM; in experiment [5], greater than 100 µM; in experiment [1], 2.9 µM.

Turning to `O=C(COc1ccccc1)N1CCCC[C@@H]1c1csc(-c2cccnc2)n1`, the IC50 in experiment [2] was 4.16 µM; in experiment [3], greater than 100 µM; in experiment [5], 52.2 µM; in experiment [1] it was 0.0627 µM.

For `O=C(COc1ccccc1)N1CCCC[C@@H]1c1csc(-c2ccncc2)n1`, the IC50 is greater than 100 µM in experiment [2], greater than 100 µM in experiment [3], 79.6 µM in experiment [5] and 0.219 µM in experiment [1].

In the case of `O=C(COc1ccccc1)N1CCCC[C@@H]1c1csc(C2COc3ccccc3O2)n1` (some centres not stated), the IC50 in experiment [2] is greater than 100 µM; in experiment [3], greater than 100 µM; in experiment [5], greater than 100 µM; in experiment [1], 3.62 µM.

Regarding `O=C(COc1ccccc1)N1CCCC[C@@H]1c1csc(-c2ccc(F)cc2)n1`, the IC50 was greater than 100 µM in experiment [2], greater than 100 µM in experiment [3], greater than 100 µM in experiment [5] and 0.44 µM in experiment [1].

Turning to `COC(=O)c1ccc(-c2nc([C@H]3CCCCN3C(=O)COc3ccccc3)cs2)cc1`, the IC50 is greater than 100 µM in experiment [2], greater than 100 µM in experiment [3], greater than 100 µM in experiment [5] and 1.21 µM in experiment [1].

For `O=C(O)c1ccc(-c2nc([C@H]3CCCCN3C(=O)COc3ccccc3)cs2)cc1`, the IC50 in experiment [2] was greater than 100 µM; in experiment [3], 5.1 µM; in experiment [5], greater than 100 µM; in experiment [1], 2.23 µM.
